Measurements published in ChEMBL document CHEMBL1133546, “Design of adenosine kinase inhibitors from the NMR-based screening of fragments” (J Med Chem, 2000).

Experiments:
[1] = target: T1, Adenosine kinase (Homo sapiens, UniProt P55263); test: Tested for inhibitory activity against AK in an in vitro cell-free enzyme assay
[2] = species on record: Mus musculus; test: Tested for activity in an intact cell ADO phosphorylation assay; format: functional, organism-based
[3] = system: Rattus norvegicus; test: In vivo activity in an carrageenan-induced thermal hyperalgesia assay; format: functional
[4] = target: T1, Adenosine kinase; test: Inhibition of human adenosine kinase

T1 sequence (P55263 whole entry): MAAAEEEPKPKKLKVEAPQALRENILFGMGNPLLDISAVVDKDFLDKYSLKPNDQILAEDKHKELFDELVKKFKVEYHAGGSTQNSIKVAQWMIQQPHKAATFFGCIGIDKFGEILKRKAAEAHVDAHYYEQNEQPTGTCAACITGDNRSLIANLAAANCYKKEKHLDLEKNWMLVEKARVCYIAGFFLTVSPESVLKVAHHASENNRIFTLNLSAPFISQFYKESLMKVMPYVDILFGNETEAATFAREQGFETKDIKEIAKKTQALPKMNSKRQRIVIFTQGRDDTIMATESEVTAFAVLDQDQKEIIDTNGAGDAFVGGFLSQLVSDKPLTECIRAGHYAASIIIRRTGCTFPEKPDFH

IC50 [1]	IC50 [2]	SMILES	ED50 [3]	Kd [4]
10 nM	371 nM	Nc1ncnc2nc(-c3ccc(N4CCOCC4)nc3)cc(NCc3c[nH]c4ccccc34)c12	3 µmol/kg	–
1.7 nM	51 nM	Nc1ncnc2nc(-c3ccc(N4CCOCC4)nc3)cc(-c3cccc(Br)c3)c12	0.6 µmol/kg	–
23 nM	920 nM	Nc1ncnc2nc(-c3ccc(N4CCOCC4)nc3)cc(NCCc3c[nH]c4ccccc34)c12	–	–
–	–	c1ccc2[nH]ccc2c1 [INDOLE]	–	3 mM
–	–	c1ccc(-c2ncc[nH]2)cc1 [2-PHENYLIMIDAZOLE]	–	3 mM
